In ChEMBL document CHEMBL1133223, “Mechanistic studies on prolyl-4-hydroxylase: the vitamin C requiring uncoupled oxidation” (Bioorg Med Chem Lett, 2000):
Square brackets hold non-standard residues; d marks the D form. Peptide text beside a SMILES is read from it. * marks the point of attachment. ΔPro = O=C(O)[C@@H]1C=CCN1; Cbz = O=C(OCc1ccccc1)*

Legend:
Assay type in all cases: ADME
[1] = Percent Vmax by incubating with prolyl-4-hydroxylase under standard assay conditions
[2] = V/K by incubating with prolyl-4-hydroxylase under standard assay conditions
[3] = Km by incubating with prolyl-4-hydroxylase under standard assay conditions

Row | Vmax [1] [%] | V/K [2] | Km [3] [µM] | Structure (SMILES)
1 | 30 | 3.4 | 520 | CCOC(=O)CNC(=O)[C@@H]1CCCN1C(=O)[C@H](Cc1ccccc1)NC(=O)CNC(=O)OCc1ccccc1 (Cbz-GFPG-OEt)
2 | 95 | – | 200 | CCOC(=O)CNC(=O)[C@@H]1C=CCN1C(=O)[C@H](Cc1ccccc1)NC(=O)CNC(=O)OCc1ccccc1 (Cbz-GF[ΔPro]G-OEt)
3 | 100 | – | 200 | O=C(O)CNC(=O)[C@@H]1CCCN1C(=O)[C@@H]1CCCN1 (H-Pro-Pro-Gly-OH)
